Assay results reported in article PMC10488193, “Evaluation of the Chemical Stability, Membrane Permeability and Antiproliferative Activity of Cyclic Diarylheptanoids from European Hornbeam (Carpinus betulus L.)” (International Journal of Molecular Sciences, 2023).

Test: PAMPA-BBB
Type: in vitro ADME
Conditions: pH 7.4, read-out: logPe PAMPA-BBB (n = 9) (converted)
Procedure: A parallel artificial membrane permeability assay (PAMPA) was used to determine the effective permeability (Pe) for the Carpinus diarylheptanoids. Stock solutions of the isolated compounds (10 mM in DMSO) were diluted with the defined buffer (pH 7.4 for the PAMPA-BBB and pH 6.8 for the PAMPA-GI assays) to obtain the donor solutions (composition: 297.0 μL buffer + 3.0 μL stock solution). Donor solutions were filtered through Phenex-RC 15 mm, 0.2 μm syringe filters (Gen-Lab Ltd., Budapest, Hungary).
For the PAMPA-BBB test, 5 μL of porcine polar brain lipid extract (PBLE) solution (16.0 mg PBLE + 8.0 mg cholesterol dissolved in 600.0 μL n-dodecane) was applied for each well of the 96-well polycarbonate-based filter donor plates (top plate) (Multiscreen™-IP, MAIPN4510, pore size 0.45 μm; Merck). […]
After the incubation, the plates were separated and the compound concentrations in the donor (CD(t)) and acceptor (CA(t)) solutions were determined using the aforementioned UHPLC-DAD method (see Section 3.4). […]
All experiments were performed in three triplicates on three consecutive days (n = 9); caffeine standard was used as positive, while rutin was used as negative control. Clog P values were calculated using ACD/ChemSketch (Freeware) 2 January 2020 (Advanced Chemistry Development, Inc., Toronto, ON, Canada).

Compound `O=C1CCc2ccc(O)c(c2)-c2cc(ccc2O)C[C@@H](O)[C@H](O)C1` [Compound 3, giffonin X] has a Papp at 4 h, 100 µM of 1.2 ×10⁻⁶ cm/s.
